Active and inactive are the calls of the source. The calls are words filed in the database; no cut-off is given here.
How the values were obtained:
[1] = target: Mitogen-activated protein kinase; ERK1/ERK2 (Homo sapiens) (UniProt P27361+P28482); test: Decrease in ERK1/2 phosphorylation in human NCI-H460 cells at 0.6 uM in presence of HCPT by Western blot method; format: cell-based
NCI-H446 [2] = test: Effect on ERK1/2 protein expression in human NCI-H446 cells at 0.6 uM in presence of CPT by Western blot method; format: functional, cell-based
NCI-H1299 [3] = test: Cytotoxicity against human NCI-H1299 cells assessed as reduction in cell viability at 0.3 to 0.6 uM after 48 hrs in presence of HCPT by MTT assay; format: functional, cell-based
NCI-H460 [4] = test: Induction of apoptosis in human NCI-H460 cells at 0.6 uM up to 20 mins in presence of HCPT by acridine orange/ ethidium bromide staining based fluorescence microscopic method relative to control; format: functional
NCI-H446 [5] = test: Induction of apoptosis in human NCI-H446 cells assessed as increase in Bax expression at 0.6 uM in presence of CPT by Western blot method; format: functional, cell-based
NCI-H1299 [6] = test: Induction of apoptosis in human NCI-H1299 cells at 0.3 uM after 24 to 48 hrs by Annexin-V FITC/propidium iodide staining based flow cytometry; format: functional, cell-based
[7] = target: c-Jun N-terminal kinase, JNK (Homo sapiens) (UniProt P45983+P53779+P45984); test: Increase in JNK phosphorylation in human NCI-H460 cells at 0.6 uM in presence of CPT by Western blot method; format: cell-based
Homo sapiens [8] = species on record: Homo sapiens; test: Effect on Akt phosphorylation in human NCI-H446 cells at 0.6 uM in presence of CPT by Western blot method; format: cell-based
NCI-H460 [9] = test: Induction of apoptosis in human NCI-H460 cells at 0.6 uM in presence of HCPT by Annexin-V FITC/propidium iodide staining based flow cytometry; format: functional, cell-based; settings: TDE = time-dependent effect
NCI-H1299 [10] = test: Induction of apoptosis in human NCI-H1299 cells assessed as increase in pro-apoptotic cells at 0.3 uM after 48 hrs in presence of HCPT by Annexin-V FITC/propidium iodide staining based flow cytometry; format: functional, cell-based
NCI-H446 [11] = test: Induction of apoptosis in human NCI-H446 cells at 0.6 uM after 24 to 48 hrs by Annexin-V FITC/propidium iodide staining based flow cytometry; format: functional, cell-based
NCI-H1299 [12] = test: Cytotoxicity against human NCI-H1299 cells assessed as reduction in cell viability after 48 hrs by MTT assay; format: functional, cell-based; settings: NCI-H1299, 48 h
NCI-H446 [13] = test: Effect on ERK1/2 protein expression in human NCI-H446 cells at 0.6 uM in presence of HCPT by Western blot method; format: functional, cell-based
[14] = target: T1, MAP kinase p38 (Homo sapiens) (UniProt O15264+Q15759+Q16539+P53778); test: Increase in p38 MAPK phosphorylation in human NCI-H1299 cells at 0.3 uM in presence of HCPT by Western blot method; format: cell-based
[15] = target: T1, MAP kinase p38 (Homo sapiens); test: Increase in p38 MAPK phosphorylation in human NCI-H460 cells at 0.6 uM in presence of HCPT by Western blot method; format: cell-based
NCI-H460 [16] = test: Induction of apoptosis in human NCI-H460 cells assessed as activation of caspase-3/7 at 0.6 uM after 48 hrs in presence of HCPT by luciferase reporter gene assay; format: functional, cell-based
[17] = target: T1, MAP kinase p38 (Homo sapiens); test: Effect on p38 MAPK phosphorylation in human NCI-H446 cells at 0.6 uM in presence of HCPT by Western blot method; format: cell-based
NCI-H1299 [18] = test: Induction of apoptosis in human NCI-H1299 cells assessed as activation of caspase-3/7 at 0.3 uM after 48 hrs by luciferase reporter gene assay; format: functional, cell-based
NCI-H460 [19] = test: Induction of apoptosis in human NCI-H460 cells assessed as increase in caspase-9 expression at 0.6 uM in presence of HCPT by Western blot method; format: functional, cell-based
NCI-H520 = test: Cytotoxicity against human NCI-H520 cells assessed as reduction in cell viability at 0.3 to 0.6 uM after 48 hrs in presence of HCPT by MTT assay; format: functional, cell-based
NCI-H460 [20] = test: Induction of apoptosis in human NCI-H460 cells assessed as activation of caspase-3/7 at 0.6 uM after 48 hrs by luciferase reporter gene assay; format: functional, cell-based
NCI-H1299 [21] = test: Induction of apoptosis in human NCI-H1299 cells assessed as activation of caspase-3/7 at 0.3 uM after 48 hrs in presence of CPT by luciferase reporter gene assay; format: functional, cell-based
NCI-H1299 [22] = test: Induction of apoptosis in human NCI-H1299 cells assessed as increase in caspase-9 expression at 0.3 uM in presence of HCPT by Western blot method; format: functional, cell-based
NCI-H1299 [23] = test: Induction of apoptosis in human NCI-H1299 cells assessed as pro-apoptotic cells at 0.3 uM after 48 hrs in presence of CPT by Annexin-V FITC/propidium iodide staining based flow cytometry; format: functional
NCI-H446 [24] = test: Induction of apoptosis in human NCI-H446 cells assessed as increase in cytochrome-C expression at 0.6 uM in presence of CPT by Western blot method; format: functional, cell-based
NCI-H446 [25] = test: Effect on p38 MAPK protein expression in human NCI-H446 cells at 0.6 uM in presence of CPT by Western blot method; format: functional, cell-based
NCI-H446 [26] = test: Cytotoxicity against human NCI-H446 cells assessed as reduction in cell viability by measuring combinantion index at 0.3 to 0.6 uM after 48 hrs in presence of CPT by MTT assay; format: functional
NCI-H446 [27] = test: Induction of apoptosis in human NCI-H446 cells at 0.6 uM up to 20 mins in presence of CPT by acridine orange/ ethidium bromide staining based fluorescence microscopic method relative to control; format: functional
NCI-H446 [28] = test: Induction of apoptosis in human NCI-H446 cells assessed as activation of caspase-3/7 at 0.6 uM after 48 hrs by luciferase reporter gene assay; format: functional, cell-based
NCI-H446 [29] = test: Induction of apoptosis in human NCI-H446 cells assessed as activation of caspase-3/7 at 0.6 uM after 48 hrs in presence of CPT by luciferase reporter gene assay; format: functional, cell-based
NCI-H446 [30] = test: Induction of apoptosis in human NCI-H446 cells assessed as increase in caspase-9 expression at 0.6 uM in presence of CPT by Western blot method; format: functional, cell-based
NCI-H446 [31] = test: Cytotoxicity against human NCI-H446 cells assessed as reduction in cell viability at 0.3 to 0.6 uM after 48 hrs in presence of HCPT by MTT assay; format: functional, cell-based
Homo sapiens [32] = species on record: Homo sapiens; test: Decrease in Akt phosphorylation in human NCI-H460 cells at 0.6 uM in presence of HCPT by Western blot method; format: cell-based
NCI-H1299 [33] = test: Cytotoxicity against human NCI-H1299 cells assessed as reduction in cell viability by measuring combinantion index at 0.3 to 0.6 uM after 48 hrs in presence of CPT by MTT assay; format: functional
[34] = target: T1, MAP kinase p38 (Homo sapiens); test: Increase in p38 MAPK phosphorylation in human NCI-H1299 cells at 0.3 uM in presence of CPT by Western blot method; format: cell-based

Sequence of Mitogen-activated protein kinase; ERK1/ERK2 (Homo sapiens) (P27361 whole entry, looked up): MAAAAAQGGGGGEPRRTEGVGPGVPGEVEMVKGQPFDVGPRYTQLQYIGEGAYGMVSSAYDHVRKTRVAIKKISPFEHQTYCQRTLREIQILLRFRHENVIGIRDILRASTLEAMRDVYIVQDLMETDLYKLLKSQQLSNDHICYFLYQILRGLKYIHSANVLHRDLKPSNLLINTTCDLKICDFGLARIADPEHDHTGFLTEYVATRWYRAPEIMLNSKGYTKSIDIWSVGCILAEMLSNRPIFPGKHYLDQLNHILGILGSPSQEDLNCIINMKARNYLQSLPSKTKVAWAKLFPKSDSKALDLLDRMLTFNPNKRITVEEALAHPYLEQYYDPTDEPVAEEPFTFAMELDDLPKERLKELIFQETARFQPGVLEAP
Sequence of Mitogen-activated protein kinase; ERK1/ERK2 (Homo sapiens) (P28482 whole entry, looked up): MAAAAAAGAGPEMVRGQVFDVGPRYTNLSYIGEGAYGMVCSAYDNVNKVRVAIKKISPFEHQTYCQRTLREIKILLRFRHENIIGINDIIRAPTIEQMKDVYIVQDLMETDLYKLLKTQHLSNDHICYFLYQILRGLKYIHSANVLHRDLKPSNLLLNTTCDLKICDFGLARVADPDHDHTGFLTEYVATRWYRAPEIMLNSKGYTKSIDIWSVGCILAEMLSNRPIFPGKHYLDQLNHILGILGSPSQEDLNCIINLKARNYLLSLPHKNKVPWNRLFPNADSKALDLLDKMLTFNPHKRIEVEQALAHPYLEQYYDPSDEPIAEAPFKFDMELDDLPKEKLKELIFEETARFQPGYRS

For `C[C@@H]1CC[C@@]2(OC1)O[C@H]1C[C@H]3[C@@H]4CC=C5C[C@@H](O[C@@H]6O[C@H](CO)[C@@H](O[C@@H]7O[C@@H](CO)[C@H](O)[C@H]7O)[C@H](O)[C@H]6O[C@@H]6O[C@@H](C)[C@H](O)[C@@H](O)[C@H]6O)CC[C@]5(C)[C@H]4CC[C@]3(C)[C@H]1[C@@H]2C`, the Activity [1] was “Active”, the Activity (NCI-H446 [2]) was “Active” and the Activity (NCI-H1299 [3]) was “Active”. The “fold change (FC)” value (NCI-H460 [4]) was 2, the Activity (NCI-H446 [5]) was “Active” and the Activity (NCI-H1299 [6]) was “Active”. For the same molecule, the Activity [7] was “Active”, the Activity (Homo sapiens [8]) was “Active” and the Activity (NCI-H460 [9]) was “Tde”. For the same molecule, the Activity (NCI-H1299 [10]) was “Active”, the Activity (NCI-H446 [11]) was “Active” and the IC50 (NCI-H1299 [12]) was < 1000 nM. The Activity (NCI-H446 [13]) was “Active”, the Activity [14] was “Active” and the Activity [15] was “Active”. For the same molecule, the Activity (NCI-H460 [16]) was “Active”, the Activity [17] was “inactive” and the Activity (NCI-H1299 [18]) was “inactive”. The Activity (NCI-H460 [19]) was “Active”, the Activity (NCI-H520) was “Active” and the Activity (NCI-H460 [20]) was “inactive”. For the same molecule, the Activity (NCI-H1299 [21]) was “Active”, the Activity (NCI-H1299 [22]) was “Active” and the Activity (NCI-H1299 [23]) was 60%. The Activity (NCI-H446 [24]) was “Active”, the Activity (NCI-H446 [25]) was “inactive” and the CI (NCI-H446 [26]) was <1. For the same molecule, the “fold change (FC)” value (NCI-H446 [27]) was 2, the Activity (NCI-H446 [28]) was “inactive” and the Activity (NCI-H446 [29]) was “Active”. For the same molecule, the Activity (NCI-H446 [30]) was “Active”, the Activity (NCI-H446 [31]) was “Active” and the Activity (Homo sapiens [32]) was “Active”. For the same molecule, the CI (NCI-H1299 [33]) was <1 and the Activity [34] was “Active”.
